In assay [1] the test system is AKT serine-473 phosphorylation in PC-3 cells. In words: In vitro phospho-AKT serine 473 cellular assay. The assay is classed as cell-based. To be noted: Homo sapiens; PC-3 cells stimulated with EGF; first nine specific compounds; read-out: EC50 activity level, inhibition of AKT serine-473 phosphorylation. On the procedure:
b. In Vitro Phospho-AKT Serine 473 Cellular Assay
The assay measures a test compound's inhibition of AKT serine-473 phosphorylation in human prostate adenocarcinoma derived PC-3 (ATCC CRL-1435) cells that have been stimulated with epidermal growth factor (EGF).
The PC-3 cell line is maintained in RPMI1640 media supplemented with 10% FBS, 2 mM Glutamine, and 10 mM HEPES pH 7.4 at 37° C. in a 5% CO2 humidified incubator.
Cells are seeded in 384-well plates at 7,000 cells/well in 50 μl growth media. After 24 hours, growth media is removed and replaced with RPMI1640 containing no FBS. Cells are treated with 10 concentrations of test compounds or DMSO alone for controls (final DMSO concentration 0.5%) and incubated at 37° C. for 30 minutes. Cells are then stimulated for 10 minutes with 100 ng/ml EGF (final concentration). One column of controls is not stimulated with EGF to observe the signal ratio between stimulated and non-stimulated cells. After 10 minutes, compounds and stimulation media are removed and replaced with 25 μl lysis buffer containing protease inhibitors and phosphatase inhibitors. This buffer contains detergent to bring about cellular disruption. […] Following the transfer of lysate to the MSD plate, AKT in the lysate is captured on the coated antibody by incubation on a shaker at 4° C. for 16 hours. Following the capture step the plate is washed and then incubated for two hours with an antibody to S473 phosphorylated AKT which is conjugated with a Sulfo-Tag. This tag gives a signal when in proximity to the electrode on the base of the MSD plate. Binding the tagged antibody to the captured protein allow detection on a MSD reader.
EC50 values are calculated using MDL Assay Explorer 3.0.1.8 fitting a sigmoidal curve with a variable slope.

Assay [2] deals with mTOR enzyme (mTOR(1360-2549)+GBL) (Homo sapiens, UniProt P42345). The assay can be described thus: In vitro mTOR kinase assay (TR-FRET). To be noted: 0.25 nM mTOR+GBL, 8 uM ATP; values tied to compounds by order of Table 1; 'x or y' = two alternative values for separated diastereomers of unassigned stereochemistry; read-out: activity level (Ki) in the mTOR kinase assay. Type of assay: biochemical. The method in brief:
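Compounds were tested in 10-point dose curves from 10 uM top final concentration. The reaction was stopped with 2 nM Tb-anti-p4E-BP1 (T37/T46) antibody plus 10 mM EDTA for 30 minutes, and phospho-4E-BP1 was detected by TR-FRET. Ki apparent was fitted with the Morrison ATP-competitive tight-binding equation.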

The subject of a further assay is PC3 cells. The assay can be described thus: In vitro cell proliferation assay. As to conditions: Homo sapiens, PC-3, with PC3 cells; values tied to compounds by order of Table 1. Type of assay: cell-based, human. The method in brief: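 PC3 (or MDAMB361.1) cells, ~10^3/well, settled overnight, then exposed to compound for 3 days; viability read by CellTiter-Glo luminescence (RLU). Alternatively, 4-day compound exposure followed by Alamar Blue for 6 h, fluorescence 544/590 nm; EC50 from sigmoidal dose-response fit.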

Several values for one entry are separate records, joined by “and”; a condition that tells them apart may be missing. Equal entries are not always repeated.

Chain of mTOR enzyme (mTOR(1360-2549)+GBL) (P42345 1360-2549, species assumed): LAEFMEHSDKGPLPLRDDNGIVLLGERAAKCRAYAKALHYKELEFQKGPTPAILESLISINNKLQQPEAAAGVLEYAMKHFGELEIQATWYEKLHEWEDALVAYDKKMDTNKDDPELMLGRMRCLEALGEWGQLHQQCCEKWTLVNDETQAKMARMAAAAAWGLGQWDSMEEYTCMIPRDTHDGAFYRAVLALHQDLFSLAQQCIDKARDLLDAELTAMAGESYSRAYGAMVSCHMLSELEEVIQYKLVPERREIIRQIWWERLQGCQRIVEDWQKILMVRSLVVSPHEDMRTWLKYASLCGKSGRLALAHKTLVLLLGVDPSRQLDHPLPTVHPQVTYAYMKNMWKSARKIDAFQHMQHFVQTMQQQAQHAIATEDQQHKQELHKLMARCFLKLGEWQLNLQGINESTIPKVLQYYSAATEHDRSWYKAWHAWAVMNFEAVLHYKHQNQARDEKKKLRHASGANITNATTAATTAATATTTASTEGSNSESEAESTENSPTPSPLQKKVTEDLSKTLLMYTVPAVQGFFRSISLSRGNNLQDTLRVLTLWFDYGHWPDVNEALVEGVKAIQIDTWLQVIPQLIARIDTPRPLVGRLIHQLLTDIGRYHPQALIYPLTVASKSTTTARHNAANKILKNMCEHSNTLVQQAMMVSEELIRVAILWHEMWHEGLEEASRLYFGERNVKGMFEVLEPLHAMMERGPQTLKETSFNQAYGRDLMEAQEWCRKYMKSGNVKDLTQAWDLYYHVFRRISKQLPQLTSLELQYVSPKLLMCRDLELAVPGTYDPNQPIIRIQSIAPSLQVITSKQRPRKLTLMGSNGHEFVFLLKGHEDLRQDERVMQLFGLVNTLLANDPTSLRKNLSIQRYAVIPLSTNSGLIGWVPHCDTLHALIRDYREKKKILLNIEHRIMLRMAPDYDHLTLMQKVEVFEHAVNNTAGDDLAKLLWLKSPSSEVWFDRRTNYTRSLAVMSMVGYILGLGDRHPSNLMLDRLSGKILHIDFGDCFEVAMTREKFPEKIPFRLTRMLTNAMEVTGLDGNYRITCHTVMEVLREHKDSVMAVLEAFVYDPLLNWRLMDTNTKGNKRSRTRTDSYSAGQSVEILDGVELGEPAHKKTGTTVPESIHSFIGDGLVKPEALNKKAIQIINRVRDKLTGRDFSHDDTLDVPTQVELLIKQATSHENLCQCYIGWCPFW
Chain of mTOR enzyme (mTOR(1360-2549)+GBL) (Q9BVC4 whole entry partner, species assumed): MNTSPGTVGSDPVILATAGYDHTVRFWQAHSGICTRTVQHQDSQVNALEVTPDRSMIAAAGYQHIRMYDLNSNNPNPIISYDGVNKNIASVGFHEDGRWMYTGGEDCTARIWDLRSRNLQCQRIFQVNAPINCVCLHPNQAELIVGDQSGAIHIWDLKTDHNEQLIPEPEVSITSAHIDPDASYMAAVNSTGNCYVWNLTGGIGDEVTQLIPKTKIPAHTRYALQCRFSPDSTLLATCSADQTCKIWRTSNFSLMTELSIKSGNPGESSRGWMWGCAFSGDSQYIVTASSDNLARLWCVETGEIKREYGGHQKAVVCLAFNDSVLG

Usually EC50 stands for the concentration needed to bring the measured effect to its halfway point. As for `CCNC(=O)Nc1ccc(-c2nc3c(c(N4CCOCC4)n2)COCC3)cc1` [Example 18, 1-ethyl-3-(4-(4-morpholino-7,8-dihydro-5H-pyrano[4,3-d]pyrimidin-2-yl)phenyl)urea], the EC50 in assay [1] was determined as 237 nM.
In general, Ki refers to a dissociation constant, usually derived from enzyme kinetics or from competition with a known ligand. For the compound `CCNC(=O)Nc1ccc(-c2nc(N3CCOC[C@@H]3C)c3c(n2)[C@](C)(CCN2CCC2)OC3)cc1` [Example 79 er (S), 1-(4-((S)-7-(2-(azetidin-1-yl)ethyl)-7-methyl-4-((S)-3-methylmorpholino)-5,7-dihydrofuro[3,4-d]pyrimidin-2-yl)phenyl)-3-ethylurea], the Ki in assay [2] turned out to be 31 nM. The compound further registered an EC50 in the assay on PC3 cells of 774 nM.
For `CCNC(=O)Nc1ccc(-c2nc(N3CCOC[C@@H]3C)c3c(n2)[C@@](C)(CCn2ccnc2C)OC3)cc1` [Example 81 et (R), 1-ethyl-3-(4-((R)-7-methyl-7-(2-(2-methyl-1H-imidazol-1-yl)ethyl)-4-((S)-3-methylmorpholino)-5,7-dihydrofuro[3,4-d]pyrimidin-2-yl)phenyl)urea] the same measures were 67 nM and 274 nM.
As to `CCCC1(C)OCc2c(N3CCOC[C@@H]3C)nc(-c3ccc(NC(=O)NCC)cc3)nc21` (stereo partly drawn) [Example 83, 1-ethyl-3-(4-(7-methyl-4-((S)-3-methylmorpholino)-7-propyl-5,7-dihydrofuro[3,4-d]pyrimidin-2-yl)phenyl)urea], in assay [2], the Ki is 2 nM. Also, the EC50 in the assay with PC3 cells is 84 nM.
For `C=CC[C@@]1(C)OCc2c(N3CCOC[C@@H]3C)nc(-c3ccc(NC(=O)NCC)cc3)nc21` [Example 85 ek^2] the same measures were 2 nM and 66 nM.
On to `CCNC(=O)Nc1ccc(-c2nc3c(c(N4CCOC[C@@H]4C)n2)COC3)cc1` [Example 96, (S)-1-ethyl-3-(4-(4-(3-methylmorpholino)-5,7-dihydrofuro[3,4-d]pyrimidin-2-yl)phenyl)urea], for which, in assay [2], the Ki amounted to 9 nM. The compound further gave an EC50 in the assay with PC3 cells of 28 nM.
Consider `CCNC(=O)Nc1ccc(-c2nc3c(c(N4[C@@H]5CC[C@H]4COC5)n2)COC3)cc1` [Example 98, 1-(4-(4-((1R,5S)-3-oxa-8-azabicyclo[3.2.1]octan-8-yl)-5,7-dihydrofuro[3,4-d]pyrimidin-2-yl)phenyl)-3-ethylurea], for which the Ki in assay [2] turned out to be 8 nM. This compound gave an EC50 with PC3 cells of 331 nM.
`CC1(C)OCc2c(N3CCOCC3)nc(-c3ccc(N)nc3)nc21` [Example 102, 5-(7,7-dimethyl-4-morpholino-5,7-dihydrofuro[3,4-d]pyrimidin-2-yl)pyridin-2-amine]: the Ki in assay [2] is 17 nM. The compound further showed an EC50 in the assay on PC3 cells of 159 nM.
Take `C[C@H]1COCCN1c1nc(-c2cnc(N)nc2)nc2c1COC2(C)C` [Example 103, (S)-5-(7,7-dimethyl-4-(3-methylmorpholino)-5,7-dihydrofuro[3,4-d]pyrimidin-2-yl)pyrimidin-2-amine]: the Ki in assay [2] came to 15 nM. The EC50 in the assay with PC3 cells amounted to 41 nM.
With `C[C@H]1COCCN1c1nc(-c2cnc(N)nc2)nc2c1CO[C@@]2(C)CCOc1ccccc1` [Example 104 gs (S), 5-((S)-7-methyl-4-((S)-3-methylmorpholino)-7-(2-phenoxyethyl)-5,7-dihydrofuro[3,4-d]pyrimidin-2-yl)pyrimidin-2-amine], in assay [2], the Ki stood at 231 nM. In addition, in the assay on PC3 cells, the EC50 turned out to be 145 nM.
Take `CC1(C)OCc2c(N3C[C@H]4C[C@@H]3CO4)nc(-c3cnc(N)nc3)nc21` [Example 105, 5-(4-((1R,4R)-2-oxa-5-azabicyclo[2.2.1]heptan-5-yl)-7,7-dimethyl-5,7-dihydrofuro[3,4-d]pyrimidin-2-yl)pyrimidin-2-amine]: in assay [2], the Ki turned out to be 88 nM. Moreover, the EC50 in the assay with PC3 cells was determined as 17 nM.
As for `CC1(C)OCc2c(N3C[C@H]4CC[C@@H](C3)O4)nc(-c3cnc(N)nc3)nc21` [Example 107, 5-(4-((1R,5S)-8-oxa-3-azabicyclo[3.2.1]octan-3-yl)-7,7-dimethyl-5,7-dihydrofuro[3,4-d]pyrimidin-2-yl)pyrimidin-2-amine], the Ki in assay [2] was found to be 10 nM. The compound also showed an EC50 in the assay with PC3 cells of 231 nM.
`COCC[C@]1(C)OCc2c(N3CCOC[C@@H]3C)nc(-c3ccc4nc(N)oc4c3)nc21` [Example 112 hg^1]: in assay [2], the Ki was 255 nM and 410 nM. In the assay on PC3 cells, this compound yielded an EC50 of 671 nM.
For `CC1(C)OCc2c(N3CCOCC3)nc(-c3ccc4oc(N)nc4c3)nc21` [Example 114, 5-(7,7-dimethyl-4-morpholino-5,7-dihydrofuro[3,4-d]pyrimidin-2-yl)benzo[d]oxazol-2-amine], the Ki in assay [2] was 124 nM. The same compound displayed an EC50 with PC3 cells of 2500 nM.
Turning to `CC1(C)OCc2c(N3CCOCC3)nc(-c3ccc4nc(N)oc4c3)nc21` [Example 115, 6-(7,7-dimethyl-4-morpholino-5,7-dihydrofuro[3,4-d]pyrimidin-2-yl)benzo[d]oxazol-2-amine], in assay [2], the Ki is 269 nM. In the assay on PC3 cells, this compound had an EC50 of 146 nM.
For `CC1(C)OCc2c(N3CCOCC3)nc(-c3ccc4c(N)noc4c3)nc21` [Example 116, 6-(7,7-dimethyl-4-morpholino-5,7-dihydrofuro[3,4-d]pyrimidin-2-yl)benzo[d]isoxazol-3-amine] the same measures were 17 nM and 2100 nM.
As to `CC1(C)OCc2c(N3CCOCC3)nc(-c3ccc4onc(N)c4c3)nc21` [Example 117, 5-(7,7-dimethyl-4-morpholino-5,7-dihydrofuro[3,4-d]pyrimidin-2-yl)benzo[d]isoxazol-3-amine], the Ki in assay [2] was determined as 567 nM. Further, the EC50 with PC3 cells is 1200 nM.
On to `COCC[C@]1(C)OCc2c(N3CCOC[C@@H]3C)nc(-c3ccc4onc(N)c4c3)nc21` [Example 119 hq^1], for which, in assay [2], the Ki was 4300 nM and 1500 nM. This compound also registered an EC50 in the assay with PC3 cells of 203 nM.
For the compound `C[C@H]1COCCN1c1nc(-c2ccc3c(N)noc3c2)nc2c1COC2(C)C` [Example 120, (S)-6-(7,7-dimethyl-4-(3-methylmorpholino)-5,7-dihydrofuro[3,4-d]pyrimidin-2-yl)benzo[d]isoxazol-3-amine], the Ki in assay [2] was 24 nM. The compound further had an EC50 with PC3 cells of 39 nM.
`C[C@H]1COCCN1c1nc(-c2ccc3onc(N)c3c2)nc2c1COC2(C)C` [Example 121, (S)-5-(7,7-dimethyl-4-(3-methylmorpholino)-5,7-dihydrofuro[3,4-d]pyrimidin-2-yl)benzo[d]isoxazol-3-amine]: the Ki in assay [2] came to 390 nM. The compound further returned a half-maximal effective concentration (EC50) in the assay on PC3 cells of 1300 nM.
As to `C[C@H]1COCCN1c1nc(-c2ccc3oc(N)nc3c2)nc2c1COC2(C)C` [Example 123, (S)-5-(7,7-dimethyl-4-(3-methylmorpholino)-5,7-dihydrofuro[3,4-d]pyrimidin-2-yl)benzo[d]oxazol-2-amine], the Ki in assay [2] was 43 nM. Moreover, the EC50 with PC3 cells was determined as 302 nM.
Take `COCC[C@]1(C)OCc2c(N3CCOC[C@@H]3C)nc(-c3ccc4nc(N)[nH]c4c3)nc21` [Example 124 hv^1]: the Ki in assay [2] is 24 nM and 81 nM. For the same compound, a half-maximal effect in the assay with PC3 cells (EC50) was put at 577 nM.
Regarding `CNc1nc2cc(-c3nc(N4CCOC[C@@H]4C)c4c(n3)C(C)(C)OC4)ccc2[nH]1` [Example 125, (S)-5-(7,7-dimethyl-4-(3-methylmorpholino)-5,7-dihydrofuro[3,4-d]pyrimidin-2-yl)-N-methyl-1H-benzo[d]imidazol-2-amine], the Ki in assay [2] was 10 nM. Besides, the EC50 in the assay with PC3 cells worked out at 562 nM.
Take `CC[C@H]1COCCN1c1nc(-c2cnc(N)nc2)nc2c1CCCO2` [Example 128, (S)-5-(4-(3-ethylmorpholino)-6,7-dihydro-5H-pyrano[2,3-d]pyrimidin-2-yl)pyrimidin-2-amine]: in assay [2], the Ki was determined as 103 nM. Moreover, the EC50 in the assay with PC3 cells was 1200 nM.
Consider `Nc1ccc(-c2nc3c(c(N4C[C@H]5CC[C@@H](C4)O5)n2)CCCO3)cn1` [Example 130, 5-(4-((1R,5S)-8-oxa-3-azabicyclo[3.2.1]octan-3-yl)-6,7-dihydro-5H-pyrano[2,3-d]pyrimidin-2-yl)pyridin-2-amine], for which the Ki in assay [2] was 30 nM. A half-maximal effect with PC3 cells (EC50) was put at 743 nM.
On the same counts, the results for `Nc1ccc(-c2nc3c(c(N4[C@@H]5CC[C@H]4COC5)n2)CCCO3)cn1` [Example 132, 5-(4-((1R,5S)-3-oxa-8-azabicyclo[3.2.1]octan-8-yl)-6,7-dihydro-5H-pyrano[2,3-d]pyrimidin-2-yl)pyridin-2-amine] are 32 nM and 585 nM.

Values taken from US20100331305A1, “OXO-HETEROCYCLE FUSED PYRIMIDINE COMPOUNDS, COMPOSITIONS AND METHODS OF USE” (Genentech, Inc., priority 2009, published 2010).
